Where two headings read alike, the source gives them in different places.

The test system of one data set is human LDL. The experiment in a line: LDL assay of antioxidant properties (TBA-reactive material). The format is biochemical. The settings on record: 5×10^-5 M, 24 h, 10 μM Cu^2+, versus vehicle-treated control; 50 µM. The procedure:
(§1) The antioxidant properties of the compounds according to the invention were studied in in-vitro tests. In these tests the substance was incubated with the substrate to be oxidized (synthetic triglyceride with unsaturated fatty acids, i.e., trilinolenine or human LDL). After the incubation period, the degree of oxidation was determined using the so called thiobarbituric acid (TBA) assay. TBA reacts with malondialdehyde (MDA), which is one of the essential oxidation products. The reaction product was assayed photometrically.
LDL (d=1.019-1.063) was obtained from human plasma by ultracentifugation under addition of EDTA.
100 μg of LDL was incubated with 0. 5 ml of HAM F 10 medium for 24 h at […] with vehicle (namely ethanol, 0. 5% final concentration) or test substance (concentration: 5×10^-5 M) in the presence of 10 μM of Cu^2+.
The total TBA-reactive material was determined in accordance with the trilinolenine assay.
(§2) Three preparations were tested per test compound.
(§3) Tables 3a (trilinolenine assay) and 3b (LDL assay) represent the mean changes in percent as compared to solvent control.
(§4) Table 3: mean change (Δ mean reduction) in percent of the concentration of TBA-reactive material after 3-h (a: trilinolenine assay) and 24-h (b: LDL assay) incubation versus vehicle-treated control preparation.

In a further data set the test system is triglycerides. The experiment in a line: Lipid-lowering properties in fasting normolipidemic rats (serum triglycerides, GPO-PAP method). The format is in vivo. The following applies: rat, single oral dose 0.2 mmol/kg, read-out: Mean change (Δ mean reduction) of triglyceride concentrations versus vehicle-treated control. As to the method: The lipid-lowering properties of the compounds according to the invention were investigated in a rat model. In this model a single dose (0.2 mmol/kg) of the test substance was administered to fasting normolipidemic rats by the oral route. 240 and 360 minutes after application, blood samples were taken, the concentrations of triglycerides being assessed by a standard method (namely GPO-PAP method, E. Merck-system, Darrdstadt, Germany) (n=5 rats per measurement time).
In Table 2 the mean changes are given in percent as compared to a solvent (cremophor, 30% in aqua dest) control.
Table 2: Mean changes (Δ mean reduction) in percent of triglyceride concentrations 240 and 360 minutes after a single application versus vehicle-treated control.

Data set [1] can be described thus: Trilinolenine assay of antioxidant properties (TBA-reactive material). The format is biochemical. The settings on record: 5×10^-5 M, 3 h at 37° C., versus vehicle-treated control; 50 µM. The procedure: as §1
400 μl of trilinolenine was incubated for 3 h at 37° C. with 2 ml HAM F 10 medium with vehicle (namely, ethanol, 0.5% final concentration) or test substance (concentration: 5×10^-5 M) (oxidation is effected without special catalysts).
The total TBA-reactive material was determined in 1 ml of the incubate by adding 1.5 ml of 0.67% TBA solution to 0.05 N NAOH and 1.5 ml to a 20% trichloroacetic acid solution. The mixture was reacted for 60 min. on a boiling water bath. After cooling, absorption was determined at 532 nm.
as §2, §3, §4

For data set [2], the system named is Smooth muscle cells from the aorta of balloon-catheterized rats. As to the kind of experiment: Antiproliferative effect on smooth muscle cells in vitro. The format is cell-based. The settings on record: Rattus norvegicus, 72 h; 5×10^-5 M, 3 days, versus vehicle-treated control; read-out: Mean change (Δ mean reduction) of the number of smooth vascular muscle cells. As to the method:
Smooth muscle cells, obtained after isolation from the aorta of balloon-catheterized rats, were cultivated in DMEM under addition of 10% of fetal calf serum and subject to passages.
For the assay 10,000 cells of one passage were inoculated per dish and incubated for 3 days with vehicle (namely DMSO, 0.5% final concentration) or test compound (5×10^-5 M) 4 h after innoculation. After 3 days a cell count was made. Six preparations-Were tested per test compound.
Table 5: Mean change (Δ mean reduction) in percent of the number of smooth vascular muscle cells after incubation with test substance for 3 days as compared to vehicle-treated control preparation.

Data set [3] deals with Human endothelial cells of the umbilical vein. The experiment in a line: Endothelial protection against cytotoxic effects of oxidized LDL. The format is cell-based. The following applies: 2×10^-5 M, 24 h at 37° C., LDL 200 μg/ml; for Mean change (Δ mean reduction) of the concentration of TBA-reactive material after incubation of endothelial cells with LDL: versus control preparation 1 (vehicle + LDL), 20 µM; for viability at 20 µM: Homo sapiens, Endothelial cell, control preparation 2 without LDL = 100%, read-out: Mean number of endothelial cells after incubation with LDL as compared to control preparation 2. As to the method: Human endothelial cells of the umbilical vein were isolated after collagenase vascular treatment and cultured.
For the assay the cells were dispersed in a density of 50,000 per dish and cultivated for 4 days with Ham's F 12/DMEM medium (ratio: 4:1) under addition of 15% fetal calf serum, 5% horse serum and 10 ng/ml ECGF heparin.
After 4 days the cells were washed with serum-free medium and used in the cytotox assay.
For this assay the cells were incubated f or 24 h at 37° C. in 1 ml of Ham's F 10 medium (+ECGF heparin) with LDL (200 μg/ml). During this time period either the vehicle, namely, ethanol, 0.5% final concentration (control preparation 1) or the test substance (2×10^-5 M) was present. In parallel, one preparation was incubated without LDL and without any other substance and with vehicle (0.5% ethanol) to assess the maximum proliferation rate (control preparation 2).
After 24 h the resultant TBA-reactive material was determined in the medium or the number of cells counted.
as §2
Table 4a represents the mean changes in percent versus appropriate control preparation 1.
Table 4a: Mean change (Δ mean reduction) in percent of the concentration of TBA-reactive material after incubation of endothelial cells for 24 h with LDL versus appropriate control preparation 1.
Table 4b: Mean number of cells in percent after 24-h incubation with LDL as compared to appropriate control preparation 2.

The nature of data set [4]: Kinetics of nicotinic acid released from the compounds in fasting normolipidemic rats (GC/MS in serum). The settings on record: general statement. The format is in vivo, rat. The procedure:
The kinetics of nicotinic acid released from the compounds under investigation was studied in the rat. A single dose (0.2 mmol/kg) of the test substance was administered to fasting normolipidemic rats by gavage. 240 and 360 minutes thereafter, blood samples were taken and the concentration of nicotinic acid in serum was determined using a GC/MS method (n=5 rats per time). Table 1: Concentration of nicotinic acid (mg/1) in pooled serum samples after a single application of drug.

For `CC(C)(C)c1cc(CCCOCCCc2cccnc2)cc(C(C)(C)C)c1O` [3/190, 2,6-Di-tert-butyl-4-[7-(3-pyridyl)-4-oxaheptyl]phenol], the “Mean change (Δ mean reduction) of the concentration of TBA-reactive material, LDL assay” value (“Mean change (Δ mean reduction) … LDL assay” below) in the data set on human LDL was 89%. Moreover, the inhibition in vivo at 200 µmol/kg in the data set with triglycerides (4 h, Time 240') was 56%; in the data set with triglycerides (6 h, Time 360') it was 28%. Moreover, the “Mean change (Δ mean reduction) of the concentration of TBA-reactive material, trilinolenine assay” value in data set [1] came to 72%. The inhibition at 50 µM in data set [2] was found to be 91%. Further, the “Mean change (Δ mean reduction) of the concentration of TBA-reactive material after incubation of endothelial cells with LDL” value (“Mean change (Δ mean reduction) … with LDL” below) in data set [3] is on record as 36%. Besides, the viability at 20 µM in data set [3] was 65%.
For `CC(C)(C)c1cc(COCCCCCCCc2cccnc2)cc(C(C)(C)C)c1O` [3/188, 2,6-Di-tert-butyl-4-[9-(3-pyridyl)-2-oxanonyl]phenol], in the data set with human LDL, the “Mean change (Δ mean reduction) … LDL assay” value is recorded as 71%. In addition, the inhibition in vivo at 200 µmol/kg with triglycerides (4 h, Time 240') turned out to be 53%; with triglycerides (6 h, Time 360'), 40%. In data set [1], the “Mean change (Δ mean reduction) of the concentration of TBA-reactive material, trilinolenine assay” value is given as 66%. Moreover, the inhibition at 50 µM in data set [2] was 63%. The “Mean change (Δ mean reduction) … with LDL” value in data set [3] was 54%. In addition, the viability at 20 µM in data set [3] was 79%.
Consider `CC(C)(C)c1cc(COCCCCCCc2cccnc2)cc(C(C)(C)C)c1O` [3/161, 2,6-Di-tert-butyl-4-[8-(3-pyridyl)-2-oxaoctyl]phenol], for which the “Mean change (Δ mean reduction) … LDL assay” value in the data set with human LDL is recorded as 79%. Further, the inhibition in vivo at 200 µmol/kg in the data set on triglycerides (4 h, Time 240') is 60%. Moreover, the inhibition in vivo at 200 µmol/kg in the data set with triglycerides (6 h, Time 360') turned out to be 67%. Besides, the “Mean change (Δ mean reduction) of the concentration of TBA-reactive material, trilinolenine assay” value in data set [1] is reported as 58%. The inhibition at 50 µM in data set [2] was determined as 98%. In data set [3], the “Mean change (Δ mean reduction) … with LDL” value came to 64% and the viability at 20 µM was determined as 107%.
For the compound `CC(C)(C)c1cc(COCCCC/C=C\c2cccnc2)cc(C(C)(C)C)c1O` [3/181, (Z)-2,6-Di-tert-butyl-4-(8-(3-pyridyl)-2-oxaoct-7-enyl]-phenol], in the data set on human LDL, the “Mean change (Δ mean reduction) … LDL assay” value turned out to be 76%. In addition, the inhibition in vivo at 200 µmol/kg with triglycerides (4 h, Time 240') stood at 57%. In the data set on triglycerides (6 h, Time 360'), the inhibition in vivo at 200 µmol/kg turned out to be 57%. Also, the “Mean change (Δ mean reduction) of the concentration of TBA-reactive material, trilinolenine assay” value in data set [1] stood at 76%. The inhibition at 50 µM in data set [2] came out at 81%. For the same compound, in data set [3], the “Mean change (Δ mean reduction) … with LDL” value is recorded as 65% and the viability at 20 µM was found to be 122%.
Turning to `CC(C)(C)c1cc(COCCCCc2cccnc2)cc(C(C)(C)C)c1O` [3/187, 2,6-Di-tert-butyl-4-[6-(3-pyridyl)-2-oxahexyl]phenol], the “Mean change (Δ mean reduction) … LDL assay” value with human LDL is listed as 82%. For the same compound, the inhibition in vivo at 200 µmol/kg in the data set with triglycerides (4 h, Time 240') is 65%. The inhibition in vivo at 200 µmol/kg with triglycerides (6 h, Time 360') amounted to 55%. In data set [1], the “Mean change (Δ mean reduction) of the concentration of TBA-reactive material, trilinolenine assay” value was determined as 71%. Moreover, the inhibition at 50 µM in data set [2] is 93%. In addition, in data set [3], the “Mean change (Δ mean reduction) … with LDL” value came to 53% and the viability at 20 µM was 80%.
Take `CC(C)(C)c1cc(CCCOCc2cccnc2)cc(C(C)(C)C)c1O` [3/124, 2,6-Di-tert-butyl-4-(5-(3-pyridyl)-4-oxapentyl]phenol]: the “Mean change (Δ mean reduction) … LDL assay” value in the data set with human LDL worked out at 90%. For the same compound, the inhibition in vivo at 200 µmol/kg in the data set on triglycerides (4 h, Time 240') amounted to 73%. For the same compound, in the data set with triglycerides (6 h, Time 360'), the inhibition in vivo at 200 µmol/kg is 76%. Besides, the “Mean change (Δ mean reduction) of the concentration of TBA-reactive material, trilinolenine assay” value in data set [1] was 76%. The inhibition at 50 µM in data set [2] was found to be 71%. For the same compound, in data set [3], the “Mean change (Δ mean reduction) … with LDL” value was 57% and the viability at 20 µM is 118%.
In the case of `CC(C)(C)c1cc(COCCCCC#Cc2cccnc2)cc(C(C)(C)C)c1O` [3/179, 2,6-Di-tert-butyl-4-[8-(3-pyridyl)-2-oxaoct-7-ynyl]phenol], the “Mean change (Δ mean reduction) … LDL assay” value in the data set with human LDL came out at 73%. Moreover, the inhibition in vivo at 200 µmol/kg with triglycerides (4 h, Time 240') was determined as 57%. Also, in the data set with triglycerides (6 h, Time 360'), the inhibition in vivo at 200 µmol/kg came to 70%. Also, the “Mean change (Δ mean reduction) of the concentration of TBA-reactive material, trilinolenine assay” value in data set [1] turned out to be 79%. The inhibition at 50 µM in data set [2] was 55%. Moreover, in data set [3], the “Mean change (Δ mean reduction) … with LDL” value is 43% and the viability at 20 µM turned out to be 76%.
For the compound `CC(C)(C)c1cc(COCc2cccnc2)cc(C(C)(C)C)c1O` [3/156], the “levels of nicotinic acid (in words)” value in data set [4] is reported as “excessively high levels of nicotinic acid”.
Consider `CC(C)(C)c1cc(CCCOCCCCCc2cccnc2)cc(C(C)(C)C)c1O` [3/191, 2,6-Di-tert-butyl-4-[9-(3-pyridyl)-4-oxanonyl)phenol], for which the “Mean change (Δ mean reduction) … LDL assay” value in the data set with human LDL is on record as 86%. For the same compound, the inhibition in vivo at 200 µmol/kg in the data set on triglycerides (4 h, Time 240') amounted to 37%; with triglycerides (6 h, Time 360') it was 32%. For the same compound, the “Mean change (Δ mean reduction) of the concentration of TBA-reactive material, trilinolenine assay” value in data set [1] is given as 76%. For the same compound, the inhibition at 50 µM in data set [2] was 79%. In addition, the “Mean change (Δ mean reduction) … with LDL” value in data set [3] was found to be 33%. Moreover, the viability at 20 µM in data set [3] came out at 63%.
On to `CC(C)(C)c1cc(COCCCCCc2cccnc2)cc(C(C)(C)C)c1O` [3/192, 2,6-Di-tert-butyl-4-[7-(3-pyridyl)-2-oxaheptyl]phenol], for which, in the data set with human LDL, the “Mean change (Δ mean reduction) … LDL assay” value came to 86%. For the same compound, the inhibition in vivo at 200 µmol/kg in the data set with triglycerides (4 h, Time 240') is 44%. For the same compound, in the data set on triglycerides (6 h, Time 360'), the inhibition in vivo at 200 µmol/kg was determined as 53%. Besides, in data set [1], the “Mean change (Δ mean reduction) of the concentration of TBA-reactive material, trilinolenine assay” value is recorded as 74%. The inhibition at 50 µM in data set [2] amounted to 95%. Further, in data set [3], the “Mean change (Δ mean reduction) … with LDL” value came to 47% and the viability at 20 µM was 79%.
